Test results: patent US20260356803A1, “Nicotinamide derivatives” (Board of Regents, The University of Texas System, priority 2024, published 2026)

Assays:
[1] = Co-treatment of 9 with sublethal FK866; assay type: cell-based
Experimental: (§1) These observations, taken together, support the hypothesis that the activity of compound 9 depends on NAMPT and NMNAT1.
(§2) In 96-well assay plates (Corning #2903), 2,000 cells were plated per well in 100 μL of medium and allowed to adhere overnight. The next day, compounds or Nam suspended in DMSO were dispensed to the assayed wells using a D300e Digital Dispenser (Tecan). All wells were normalized to 0.5% DMSO. 72 hours after incubation at 37 °C in 5% CO2, cell viability was assayed using an ATP-based luminescent viability assay, CellTiter-Glo (Promega #G8462). CellTiter-Glo substrate was mixed 1:1 with phosphate-buffered saline (PBS) supplemented with 1% Triton X-100, and 40 μL of this mixture was added to the assay wells. After the plates were shaken on a microplate shaker for 10 minutes at room temperature, luminescence was recorded using a Synergy 2 Microplate Reader or Cytation 5 plate reader (BioTek). In Prism 9 software (GraphPad), ten-point dose response curves were plotted with baseline-correction to the vehicle control well, and IC50 values were calculated by curve fitting using asymmetric (five parameter), least squares fit.

HCT116 cells = test: Cas9-expressing HCT116 cell viability; assay type: cell-based
Source text: To gain insight into the mechanism of 9 and the relevance of Nam, we pursued two independent and complementary unbiased genetic approaches. First, we performed a genome-wide pooled Clustered Regularly Interspaced Short Palindromic Repeats (CRISPR) and CRISPR-associated protein 9 (Cas9) knockout screen to identify genes whose loss of function can enhance or suppress compound 9 activity. […] We cultured Cas9-expressing HCT116 cells in 10% FBS Nam-free DMEM and transduced with a lentiviral single guide RNA (sgRNA) library designed to silence 19,114 human genes.^11 These cells were treated with either vehicle (DMSO) or 9 for 30 days by which time the 9-treated cells had 7.6 fewer population doublings. Then, relative sgRNA sequences in the resulting cells were determined by massively parallel sequencing of PCR products amplified from genomic DNA, and the relative impact of each gene was derived from the sgRNA reads.
as §1, §2

[2] = system: NAMPT activity in S462 cells; test: NMN levels in S462 cells (NAMPT activity in cells); assay type: cell-based, human; details: regular DMEM, increasing concentrations of 9, compared with FK866

With O=C(Nc1cccs1)c1cccnc1 [Compound 9, N-(Thiophen-2-yl)nicotinamide] the “increase in IC50 of 9 with FK866” value ([1]; addition of 278 pM FK866) was 2.9 fold, the “increase in IC50 of 9 with FK866” value ([1]; addition of 833 pM FK866) was 15.4 fold and the “rescue by 100 μM Nam” value (HCT116 cells; 10% FBS Nam-free DMEM) was “rescued by 100 μM Nam”. The IC50 (HCT116 cells; Cas9-expressing HCT116, 10% FBS Nam-free DMEM) was 20.8 nM, the “average increase in IC50 on NMNAT1 knockout” value (HCT116 cells; HCT116, three independent NMNAT1 sgRNAs) was 6.0 fold and the “NMN levels in S462 cells” value [2] was “did not reduce the levels of NMN to the same extent as FK866”.
